Measurements published in patent publication EP2724723A1, “Tegaserod for use in the treatment of nerve injuries” (Universitätsklinikum Hamburg-Eppendorf, priority 2012, dated 2014).

System: regenerated femoral nerves
Test: Histology of the regenerated femoral nerve
Type: in vivo, C57BL/6J mice
Conditions: 15 weeks; for myelinated axons: vehicle control 78%; for average number of axons within regenerated nerves: vehicle control 432, unsevered 608
Procedure: Tegaserod was evaluated in a 2 mm femoral nerve defect of 12-week old C57BL/6J mice as previously described in Mehanna et al. (2009), see above. Briefly, mice were anesthetized and the femoral nerve of the left rear leg exposed. The nerve was bis-sected 3 mm proximal to the branching of the saphenous and motor branches, and the nerve ends were sutured 0.5 mm into a 3 mm polyethylene conduits with 0.58 mm inner diameter (Becton Dickinson), leaving an overall gap length of 2 mm. Conduits were filled with PuraMatrix peptide hydrogel (Becton Dickinson 354250) using 2x PBS as the gelation stimulant. Tegaserod was dissolved in the 2x PBS at concentrations of 500 nM and 5,000 nM, resulting in final concentrations of 250 nM and 2,500 nM once the PBS was combined 1:1 v/v with the PuraMatrix.
At the end of the recovery period, femoral nerves were fixed and histology was performed to assess nerve morphology within the regenerated region 1 mm into the 2 mm gap. Animals were perfused with 4% paraformadehyde and explanted nerves were post-fixed in osmium tetroxide and embedded in resin. One and 2 µm thick sections were cut into the center of the regenerated nerve and sections were stained with 1% toluidine blue and 1% borax. Sections were imaged with a Zeiss Axiocam, using 20x, 40x, and 100x objectives and AxioVision imaging software. ImageJ software was used to calculate total nerve area, number of axons, % of myelinated axons, and g-ratio as described Mehanna et al. (2009), see above.

[H]/N=C(/NCCCCC)N/N=C/c1c[nH]c2ccc(OC)cc12 [tegaserod, (E)-but-2-enedioic acid; 1-[[(Z)-(5-methoxyindol-3-ylidene)methyl]amino]-2-pentylguanidine]
myelinated axons (250 nM): 88%
average number of axons within regenerated nerves (250 nM): 589 axons
myelinated axons (2,500 nM): 83%
average number of axons within regenerated nerves (2,500 nM): 434 axons
